Assay results published in patent publication US20050165082A1, “Methods of treating vasomotor symptoms” (Wyeth, priority 2003, published 2005).
Entries after “also recorded” stand apart in the source; their conditions may differ.

Key:
[1] = tested on: naloxone-induced flush in morphine-dependent ovariectomized rats; assay: Morphine-dependent rat model: naloxone-induced flush, tail skin temperature (TST); format: in vivo
Description: (§1) Dosing: All doses were prepared based on mg/kg. All compounds were administered intraperitoneally and dissolved and used at the following dosages: SSR149415 (V1b receptor antagonist, 3.0-30 mg/kg was dissolved in 5% DMSO in 5% Cremophor EL). SSR49059 (V1a receptor antagonist, 30 mg/kg was dissolved 10% DMSO/sterile H2O) and VPA-985 (V2 receptor antagonist, 30 mg/kg was dissolved 10% DMSO/sterile H2O). Naloxone (1.0 mg/kg was dissolved in sterile H2O) was injected subcutaneously.
Animals: Ovariectomized Sprague-Dawley rats (180-220 g) were obtained from a commercial vendor (Taconic, Germantown, N.Y.) and individually housed under 12 hours light/dark cycle in a room maintained at 25° C. Animals were provided with standard rat chow and water ad libitum.
Morphine-dependent model: Ovariectomized rats were injected once daily for 8-9 days with vehicle to minimize stress responses and then administered compound(s) on test day (10 rats/group). On day 4 of vehicle dosing, morphine dependence was induced by sc implantation of two slow-release morphine pellets (75 mg/pellet) in the dorsal scapular region. This model is based upon an established morphine-dependent naloxone-induced flush paradigm that is reversible by estrogen treatment (Katovich et al., Proceedings of the Society for Experimental Biology & Medicine, 1990. 193(2): p. 129-35). Four to six days after implantation, morphine withdrawal was induced with an opioid antagonist (naloxone) that causes a transient increase in TST. In a typical experiment, rats were administered their final dose of test compound 40 minutes prior to naloxone injection. Rats were mildly sedated with ketamine and a thermistor connected to a MacLab data acquisition system (CB Sciences, Dover, N.H.) was taped to the base of the tail. Tail skin temperature was then monitored continuously for 10 minutes to establish a baseline temperature. Naloxone was subsequently administered and TST was measured for an additional […] (total recording time 95 min).
Statistical analysis: To analyze changes in TST induced by naloxone in morphine-dependent rats, all data was analyzed using a two factors repeated measure. The factors were “treatment” and “time” (repeated). The model was fit to test whether there were significant differences in the responses between treatment groups. The data was analyzed at 5 minute intervals from 20 minutes (−20) prior to the naloxone administration (referred to as time 0) to 60 minutes after the treatment. Multiple comparisons (LSD p-values) among the treatment groups at each time point were used for the analysis, however, the changes in TST is greatest at 15 minutes post naloxone administration and this time point provides the best indicator of flush abatement. When appropriate estimation of the ED50 value was calculated. The ED50 value was determined using a log scale and the line was fit between the maximal (15 minutes post naloxone ΔTST) and minimal response (average baseline temperature prior to naloxone). The ED50 value is reported as the dose of test compound that abates 50% of the naloxone-induced flush.
Method used as described in the general method section under morphine-dependent rat model with the following exceptions: in the morphine-dependent model rats were injected intraperitoneally with vehicle (5% DMSO in 5% Cremophor EL) or SSR149415 (V1b receptor antagonist) which may be prepared as described in WO 01/55134, dissolved in 5% DMSO in 5% Cremophor EL and administered at 3.0 and 30 mg/kg 40 minutes prior to naloxone injection (FIGS. 1A and 1B). […] At the highest dose (30 mg/kg) tested antagonism of the V1b receptor produced a 60% abatement of the naloxone-induced flush. […]

[2] = tested on: tail skin temperature in ovariectomized rats; assay: OVX-induced thermoregulatory dysfunction telemetry model (TST); format: in vivo, rat; details: 30 mg/kg intraperitoneal, 30 minutes prior to onset of dark cycle
Description: as §1
Animals: Ovariectomized Sprague-Dawley rats (180-220 g) were obtained from a commercial vendor (Taconic, Germantown, N.Y.) and individually housed under 12 hours light/dark cycle in a room maintained at 25° C. […]
OVX-induced thermoregulatory dysfunction telemetry model: To determine the effect that test compounds had on thermoregulation, TST was monitored in ovariectomized rats by telemetry (6-7 rats/group). […] After a 7 day recovery period rats were administered a vehicle injection and TST monitored continuously for 12 hours (Day 1). Twenty-four hours later rats were administered either vehicle or test compound and TST monitored continuously for 12 hours (Day 2). […]
To analyze changes in TST induced by test compounds in the thermoregulatory dysfunction model a 2-day paradigm was used. […] On Day 2, test compound is administered and TST readings are recorded every 30 minutes as described above. […]

[3] = 30 mg/kg intraperitoneal, 15 minutes post-naloxone

| Structure (SMILES) | effect on naloxone-induced flush at maximal flush (ΔTST) [1, 3] | effect on naloxone-induced flush at maximal flush (ΔTST) ([1]; 3.0 mg/kg intraperitoneal, 15 minutes post-naloxone) | abatement of the naloxone-induced flush ([1]; 30 mg/kg intraperitoneal (highest dose), 40 minutes prior to naloxone) [%] | changes in TST over time, naloxone-induced flush ([1]; 3.0 and 30 mg/kg intraperitoneal, 40 minutes prior to naloxone) | ED50 ([1]; Rattus norvegicus, ip, intraperitoneal, 40 minutes prior to naloxone, maximal flush, 15 minutes post-naloxone, read-out: ED50 value, abatement of naloxone-induced flush) [mg/kg] | change in TST (ΔTST) relative to vehicle, active phase [2] |
| --- | --- | --- | --- | --- | --- | --- |
| COc1ccc(S(=O)(=O)N2c3ccc(Cl)cc3[C@](O)(c3ccccc3Cl)[C@@H]2C(=O)N2CCC[C@H]2C(N)=O)cc1OC [SR49059] | lack efficacy in attenuating the naloxone-induced flush; also recorded: failed to abate the naloxone-induced flush |  |  |  |  |  |
| COc1ccc(S(=O)(=O)N2C(=O)C(c3ccccc3OC)(N3C[C@H](O)C[C@H]3C(=O)N(C)C)c3cc(Cl)ccc32)c(OC)c1 (stereo partly drawn) [SSR149415, (2S,4R)-1-[5-Chloro-1-[(2,4-dimethoxyphenyl)-sulfonyl]-3-(2-methoxy-phenyl)-2-oxo-2,3-dihydro-1H-indol-3-yl]-4-hydroxy-N,N-dimethyl-2-pyrrolidine carboxamide] | significantly and dose-dependently abated the naloxone-induced flush | no effect | 60 | dose-dependently abates the naloxone-induced flush | 12.1 | significant decrease in ΔTST; also recorded: able to restore normal thermoregulation; also recorded: significantly and transiently decreased TST |
| Cc1ccc(F)cc1C(=O)Nc1ccc(C(=O)N2Cc3cccn3Cc3ccccc32)c(Cl)c1 [VPA-985] | lack efficacy in attenuating the naloxone-induced flush; also recorded: failed to abate the naloxone-induced flush |  |  |  |  |  |
